Our source for the IC50 values is patent publication US20260297080A1, “BICYCLIC COMPOUNDS AS CDK INHIBITORS” (BeOne Medicines I GmbH, priority 2022, published 2026).

The target in one assay is CDK2/Cyclin E1 (Homo sapiens, UniProt P24941). The assay can be described thus: CDK2/Cyclin E1 Biochemical Assay (TR-FRET), 0.060 mM ATP. The following applies: 0.15 μM Rb (Ser780)-biotin substrate, pH7.0, 60 min preincubation, 120 min reaction, room temperature. The gist of the method: (§1)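 Inhibitor concentrations up to 10 μM were preincubated with each cyclin–kinase complex for 60 minutes before ATP and biotinylated Rb (Ser780) substrate (0.15 μM) were added. After 120 minutes at room temperature, phosphorylation was quantified by HTRF and IC50 values were fitted with a four-parameter logistic equation.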

In a further assay the target is CDK1/Cyclin B1 (Homo sapiens, UniProt P06493). Description: CDK1/Cyclin B1 Biochemical Assay (TR-FRET), 0.015 mM ATP. The following applies: 0.15 μM Rb (Ser780)-biotin substrate, pH7.0, 60 min preincubation, 120 min reaction, room temperature. The gist of the method: as §1
Chain of CDK1/Cyclin B1 (P06493 whole entry): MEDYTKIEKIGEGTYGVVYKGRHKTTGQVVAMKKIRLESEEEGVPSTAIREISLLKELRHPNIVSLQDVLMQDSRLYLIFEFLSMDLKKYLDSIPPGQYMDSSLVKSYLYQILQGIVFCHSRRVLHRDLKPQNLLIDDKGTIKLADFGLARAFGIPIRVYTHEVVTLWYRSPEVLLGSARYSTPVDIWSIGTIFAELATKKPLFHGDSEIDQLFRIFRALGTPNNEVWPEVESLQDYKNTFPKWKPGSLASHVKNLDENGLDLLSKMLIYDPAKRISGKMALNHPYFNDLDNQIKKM
Chain of CDK1/Cyclin B1 (P14635 whole entry partner): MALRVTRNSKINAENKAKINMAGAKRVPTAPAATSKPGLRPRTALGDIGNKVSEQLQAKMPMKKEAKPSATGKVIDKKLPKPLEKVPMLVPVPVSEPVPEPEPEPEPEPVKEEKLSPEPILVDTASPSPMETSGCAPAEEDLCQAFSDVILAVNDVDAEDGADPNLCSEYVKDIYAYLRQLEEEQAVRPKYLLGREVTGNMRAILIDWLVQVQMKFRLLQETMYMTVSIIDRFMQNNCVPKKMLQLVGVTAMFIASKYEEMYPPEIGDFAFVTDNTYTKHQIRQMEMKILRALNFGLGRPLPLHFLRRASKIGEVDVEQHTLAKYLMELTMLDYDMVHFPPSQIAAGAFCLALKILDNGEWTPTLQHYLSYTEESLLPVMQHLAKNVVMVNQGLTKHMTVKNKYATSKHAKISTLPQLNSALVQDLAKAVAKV

On to `CN1c2ccc(Nc3cc([C@@H]4CC[C@H](OC(=O)NC5(C)CC5)C4)[nH]n3)cc2CS1(=O)=O` (relative stereo) [Example 223, cis-3-(3-((1-methyl-2,2-dioxido-1,3-dihydrobenzo[c]isothiazol-5-yl)amino)-1H-pyrazol-5-yl)cyclopentyl(1-methylcyclopropyl)carbamate], for which the IC50 against CDK2/Cyclin E1 worked out at 5.5 nM; on CDK1/Cyclin B1, 35 nM.
With `CN1c2ccc(Nc3cc([C@@H]4CC[C@H](OC(=O)NC5CC6(CCC6)C5)C4)[nH]n3)cc2CS1(=O)=O` (relative stereo) [Example 224, cis-3-(3-((1-methyl-2,2-dioxido-1,3-dihydrobenzo[c]isothiazol-5-yl)amino)-1H-pyrazol-5-yl)cyclopentyl spiro[3.3]heptan-2-ylcarbamate], the half-maximal inhibitory concentration (IC50) against CDK2/Cyclin E1 stood at 29 nM; against CDK1/Cyclin B1, 2580 nM.
Take `CNC(=O)O[C@H]1CC[C@@H](c2cc(Nc3ccc4c(c3)CS(=O)(=O)N4C)n[nH]2)C1` (relative stereo) [Example 225, cis-3-(3-((1-methyl-2,2-dioxido-1,3-dihydrobenzo[c]isothiazol-5-yl)amino)-1H-pyrazol-5-yl)cyclopentyl methylcarbamate]: the IC50 against CDK2/Cyclin E1 was determined as 87 nM; at CDK1/Cyclin B1, 789 nM.
In the same order, the values of `COCC(C)NC(=O)O[C@H]1CC[C@@H](c2cc(Nc3ccc4c(c3)CS(=O)(=O)N4C)n[nH]2)C1` (relative stereo) [Example 226, cis-3-(3-((1-methyl-2,2-dioxido-1,3-dihydrobenzo[c]isothiazol-5-yl)amino)-1H-pyrazol-5-yl)cyclopentyl(1-methoxypropan-2-yl)carbamate] are 2 nM and 77 nM.
On to `COCC1(NC(=O)O[C@H]2CC[C@@H](c3cc(Nc4ccc5c(c4)CS(=O)(=O)N5C)n[nH]3)C2)CC1` (relative stereo) [Example 228, cis-3-(3-((1-methyl-2,2-dioxido-1,3-dihydrobenzo[c]isothiazol-5-yl)amino)-1H-pyrazol-5-yl)cyclopentyl(1-(methoxymethyl)cyclopropyl)carbamate], for which the IC50 was 9.4 nM against CDK2/Cyclin E1 and 123 nM against CDK1/Cyclin B1.
In the same order, the values of `CC(CC(F)(F)F)NC(=O)O[C@H]1CC[C@@H](c2cc(Nc3ccc4c(c3)CS(=O)(=O)N4C)n[nH]2)C1` (relative stereo) [Example 229, cis-3-(3-((1-methyl-2,2-dioxido-1,3-dihydrobenzo[c]isothiazol-5-yl)amino)-1H-pyrazol-5-yl)cyclopentyl(4,4,4-trifluorobutan-2-yl)carbamate] are 6.4 nM and 30 nM.
In the same order, the values of `CN1c2ccc(Nc3cc([C@@H]4CC[C@H](OC(=O)NCCC(F)(F)F)C4)[nH]n3)cc2CS1(=O)=O` (relative stereo) [Example 230, cis-3-(3-((1-methyl-2,2-dioxido-1,3-dihydrobenzo[c]isothiazol-5-yl)amino)-1H-pyrazol-5-yl)cyclopentyl(3,3,3-trifluoropropyl)carbamate] are 9.8 nM and 78 nM.
For the molecule `CN1c2ccc(Nc3cc([C@@H]4CC[C@H](OC(=O)NC56CC(C5)C6)C4)[nH]n3)cc2CS1(=O)=O` (relative stereo) [Example 231, cis-3-(3-((1-methyl-2,2-dioxido-1,3-dihydrobenzo[c]isothiazol-5-yl)amino)-1H-pyrazol-5-yl)cyclopentyl bicyclo[1.1.1]pentan-1-ylcarbamate], the 50% inhibitory concentration (IC50) worked out at 1.5 nM against CDK2/Cyclin E1 and 13 nM against CDK1/Cyclin B1.
Consider `CC1(NC(=O)O[C@H]2CC[C@@H](c3cc(Nc4ccc5c(c4)CS(=O)(=O)N5)n[nH]3)C2)CC1` (relative stereo) [Example 232, cis-3-(3-((2,2-dioxido-1,3-dihydrobenzo[c]isothiazol-5-yl)amino)-1H-pyrazol-5-yl)cyclopentyl(1-methylcyclopropyl)carbamate], for which the results for the IC50 at CDK2/Cyclin E1 and against CDK1/Cyclin B1 were 12 nM and 27 nM, respectively.
In the same order, the values of `CN1c2ccc(Nc3cc([C@@H]4CC[C@H](OC(=O)NC5(C)CCC5)C4)[nH]n3)cc2CS1(=O)=O` (relative stereo) [Example 233, cis-3-(3-((1-methyl-2,2-dioxido-1,3-dihydrobenzo[c]isothiazol-5-yl)amino)-1H-pyrazol-5-yl)cyclopentyl(1-methylcyclobutyl)carbamate] are 1.3 nM and 10 nM.
Take `CN1c2ccc(Nc3cc([C@@H]4CC[C@H](OC(=O)NC5(C)COC5)C4)[nH]n3)cc2CS1(=O)=O` (relative stereo) [Example 234, cis-3-(3-((1-methyl-2,2-dioxido-1,3-dihydrobenzo[c]isothiazol-5-yl)amino)-1H-pyrazol-5-yl)cyclopentyl(3-methyloxetan-3-yl)carbamate]: the values for the concentration for half-maximal inhibition (IC50) against CDK2/Cyclin E1 and against CDK1/Cyclin B1 were 4.2 nM and 67 nM, respectively.
As for `CC(NC(=O)O[C@H]1CC[C@@H](c2cc(Nc3ccc4c(c3)CS(=O)(=O)N4C)n[nH]2)C1)C1COC1` (relative stereo) [Example 235, cis-3-(3-((1-methyl-2,2-dioxido-1,3-dihydrobenzo[c]isothiazol-5-yl)amino)-1H-pyrazol-5-yl)cyclopentyl(1-(oxetan-3-yl)ethyl)carbamate], the IC50 at CDK2/Cyclin E1 is 12 nM; against CDK1/Cyclin B1, 232 nM.
Consider `CN1c2ccc(Nc3cc([C@@H]4CC[C@H](OC(=O)NC5COC5)C4)[nH]n3)cc2CS1(=O)=O` (relative stereo) [Example 236, cis-3-(3-((1-methyl-2,2-dioxido-1,3-dihydrobenzo[c]isothiazol-5-yl)amino)-1H-pyrazol-5-yl)cyclopentyl oxetan-3-ylcarbamate], for which the half-maximal inhibitory concentration (IC50) against CDK2/Cyclin E1 was determined as 47 nM; against CDK1/Cyclin B1, 320 nM.
With `CN1c2ccc(Nc3cc([C@@H]4CC[C@H](OC(=O)NCC5COC5)C4)[nH]n3)cc2CS1(=O)=O` (relative stereo) [Example 237, cis-3-(3-((1-methyl-2,2-dioxido-1,3-dihydrobenzo[c]isothiazol-5-yl)amino)-1H-pyrazol-5-yl)cyclopentyl(oxetan-3-ylmethyl)carbamate], the IC50 against CDK2/Cyclin E1 was 46 nM; at CDK1/Cyclin B1, 435 nM.
In the same order, the values of `CN1c2ccc(Nc3cc([C@@H]4CC[C@H](OC(=O)NCC(C)(C)O)C4)[nH]n3)cc2CS1(=O)=O` (relative stereo) [Example 238, cis-3-(3-((1-methyl-2,2-dioxido-1,3-dihydrobenzo[c]isothiazol-5-yl)amino)-1H-pyrazol-5-yl)cyclopentyl(2-hydroxy-2-methylpropyl)carbamate] are 16 nM and 153 nM.
On to `CN1c2ccc(Nc3cc([C@@H]4CC[C@H](OC(=O)NC5(C)CCOC5)C4)[nH]n3)cc2CS1(=O)=O` (relative stereo) [Example 239, cis-3-(3-((1-methyl-2,2-dioxido-1,3-dihydrobenzo[c]isothiazol-5-yl)amino)-1H-pyrazol-5-yl)cyclopentyl(3-methyltetrahydrofuran-3-yl)carbamate], for which the IC50 was 9.6 nM against CDK2/Cyclin E1 and 158 nM on CDK1/Cyclin B1.
Consider `Cc1c(Nc2cc([C@@H]3CC[C@H](OC(=O)NC(C)C)C3)[nH]n2)ccc2c1CS(=O)(=O)N2` (relative stereo) [Example 240, cis-3-(3-((4-methyl-2,2-dioxido-1,3-dihydrobenzo[c]isothiazol-5-yl)amino)-1H-pyrazol-5-yl)cyclopentyl isopropylcarbamate], for which the IC50 against CDK2/Cyclin E1 is 3 nM; against CDK1/Cyclin B1, 28 nM.
